The experiment deals with human NEP (Homo sapiens (Human), UniProt P08473). Put plainly: In vitro enzyme inhibition assay at human NEP. As to conditions: recombinant human NEP, fluorogenic peptide substrate, 37° C.; for Ki: pKi.
human NEP, sequence (P08473 52-750): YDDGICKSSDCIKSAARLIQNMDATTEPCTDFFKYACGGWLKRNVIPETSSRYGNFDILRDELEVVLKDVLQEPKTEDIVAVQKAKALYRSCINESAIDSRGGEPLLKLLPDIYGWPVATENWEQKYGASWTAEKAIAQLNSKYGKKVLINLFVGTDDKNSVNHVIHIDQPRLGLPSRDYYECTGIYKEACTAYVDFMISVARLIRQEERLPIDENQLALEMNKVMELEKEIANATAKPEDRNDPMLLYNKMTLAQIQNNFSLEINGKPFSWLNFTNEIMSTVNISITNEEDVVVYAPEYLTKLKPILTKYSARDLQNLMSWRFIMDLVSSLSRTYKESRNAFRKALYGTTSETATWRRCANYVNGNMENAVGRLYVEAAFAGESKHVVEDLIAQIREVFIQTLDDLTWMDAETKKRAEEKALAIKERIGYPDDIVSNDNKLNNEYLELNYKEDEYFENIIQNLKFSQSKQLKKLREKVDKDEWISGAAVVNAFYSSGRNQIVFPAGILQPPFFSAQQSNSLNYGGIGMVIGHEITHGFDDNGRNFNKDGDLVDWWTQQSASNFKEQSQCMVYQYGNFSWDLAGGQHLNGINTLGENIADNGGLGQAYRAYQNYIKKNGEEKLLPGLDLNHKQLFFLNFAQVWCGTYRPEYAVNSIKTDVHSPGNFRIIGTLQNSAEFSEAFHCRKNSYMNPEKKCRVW

As to `CCC(=O)N[C@H](C[C@@H](Cc1ccc(-c2ccccc2)cc1)NC(=O)c1c[nH]nn1)C(=O)O` [Example 27, (2R,4R)-5-Biphenyl-4-yl-2-propionylamino-4-[(1H-[1,2,3]triazole-4-carbonyl)amino]pentanoic Acid], the Ki lay within 3.16 to 10 nM.
Take `CC(=O)NC[C@H](C[C@@H](Cc1ccc(-c2cc(Cl)ccc2F)cc1)NC(=O)c1c[nH]nn1)C(=O)O` [Example 28, (2S,4S)-2-(Acetylaminomethyl)-5-(5′-chloro-2′-fluoro-biphenyl-4-yl)-4-[(1H-[1,2,3]triazole-4-carbonyl)amino]pentanoic Acid]: the pKi result is listed as “≧9.0”.
In the case of `COC(=O)N[C@H](C[C@@H](Cc1ccc(-c2cc(Cl)ccc2F)cc1)NC(=O)c1c[nH]nn1)C(=O)O` [Example 30-1, (2R,4R)-5-(5′-Chloro-2′-fluoro-biphenyl-4-yl)-2-methoxycarbonylamino-4-[(1H-[1,2,3]triazole-4-carbonyl)amino]pentanoic acid], the pKi result is recorded as “≧9.0”.
For the compound `COC(=O)N[C@H](C[C@@H](Cc1ccc(-c2cc(Cl)ccc2F)cc1)NC(=O)c1cc(C(C)=O)n[nH]1)C(=O)O` [Example 30-2, (2R,4R)-4-[(5-Acetyl-2H-pyrazole-3-carbonyl)-amino]-5-(5′-chloro-2′-fluoro-biphenyl-4-yl)-2-methoxycarbonylaminopentanoic acid], the pKi entry is “≧9.0”.
For `COC(=O)N[C@H](C[C@@H](Cc1ccc(-c2cc(Cl)ccc2F)cc1)NC(=O)c1ncco1)C(=O)O` [Example 30-3, (2R,4R)-5-(5′-Chloro-2′-fluoro-biphenyl-4-yl)-2-methoxycarbonylamino-4-[(oxazole-2-carbonyl)amino]pentanoic acid], the pKi result is listed as “≧9.0”.
As to `COC(=O)N[C@H](C[C@@H](Cc1ccc(-c2cc(Cl)ccc2F)cc1)NC(=O)c1coc(C2CC2)n1)C(=O)O` [Example 30-5, (2R,4R)-5-(5′-Chloro-2′-fluorobiphenyl-4-yl)-4-[(2-cyclopropyl-oxazole-4-carbonyl)amino]-2-methoxycarbonylaminopentanoic acid], the pKi result was “≧9.0”.
`CCOc1nc(C(=O)N[C@H](Cc2ccc(-c3cc(Cl)ccc3F)cc2)C[C@@H](NC(=O)OC)C(=O)O)co1` [Example 30-7, (2R,4R)-5-(5′-Chloro-2′-fluorobiphenyl-4-yl)-4-[(2-ethoxy-oxazole-4-carbonyl)amino]-2-methoxycarbonylaminopentanoic acid]: the pKi result is on record as “≧9.0”.
For `CCOc1oc(C(=O)N[C@H](Cc2ccc(-c3cc(Cl)ccc3F)cc2)C[C@@H](NC(=O)OC)C(=O)O)nc1C` [Example 30-8, (2R,4R)-5-(5′-Chloro-2′-fluorobiphenyl-4-yl)-4-[(5-ethoxy-4-methyl-oxazole-2-carbonyl)amino]-2-methoxycarbonylaminopentanoic acid], the Ki lay within 1.26 to 3.16 nM.
In the case of `COC(=O)N[C@H](C[C@@H](Cc1ccc(-c2cc(Cl)ccc2F)cc1)NC(=O)c1noc(=O)[nH]1)C(=O)O` [Example 30-9, (2R,4R)-5-(5′-Chloro-2′-fluorobiphenyl-4-yl)-2-methoxycarbonylamino-4-[(5-oxo-4,5-dihydro-[1,2,4]oxadiazole-3-carbonyl)amino]pentanoic acid], the pKi entry is on record as “≧9.0”.
Turning to `COC(=O)N[C@H](C[C@@H](Cc1ccc(-c2cc(Cl)ccc2F)cc1)NC(=O)c1c[nH]c(=O)o1)C(=O)O` [Example 30-10, (2R,4R)-5-(5′-Chloro-2′-fluorobiphenyl-4-yl)-2-methoxycarbonylamino-4-[(2-oxo-2,3-dihydro-oxazole-5-carbonyl)amino]pentanoic acid], the pKi entry is given as “≧9.0”.
Same read-out and setting: to `COC(=O)N[C@H](C[C@@H](Cc1ccc(-c2cc(Cl)ccc2F)cc1)NC(=O)c1coc(=O)[nH]1)C(=O)O` [Example 30-11, (2R,4R)-5-(5′-Chloro-2′-fluorobiphenyl-4-yl)-2-methoxycarbonylamino-4-[(2-oxo-2,3-dihydro-oxazole-4-carbonyl)amino]pentanoic acid] belongs “≧9.0”.
